In patent US20170073337A1, “DIHYDROTHIAZINE AND DIHYDROOXAZINE DERIVATIVES HAVING BACE1 INHIBITORY ACTIVITY” (Shionogi & Co., Ltd., priority 2014, published 2017):

Key:
Recombinant human BACE1 [1] = biological target: T1, Recombinant human BACE1 (Homo sapiens, UniProt P56817); experiment: Assay of BACE1 inhibitory activity: 96-well; assay type: biochemical; conditions: Assay format 96-well
T1 construct: purchased R&D Systems
Experimental: 48.5 μL of substrate peptide solution (Biotin-XSEVNLDAEFRHDSGC-Eu: X=ε-amino-n-capronic acid. Eu=Europium cryplate) was added to each well of 96-hole half-area plate (a black plate: Costar), and after addition of 0.5 μl of the compound of the present invention (DMSO solution) and 1 μl of Recombinant human BACE1(R&D Systems), the reaction mixture was incubated at 30° C. for 3.5 hours. The substrate peptide was synthesized by reacting Cryptate TBPCOOH mono SMP (CIS bio international) with Biotin-XSEVNLDAEFRHDSGC (Peptide Institute, Inc.).
After the incubation for reaction, 50 μl of 8.0 μg/ml Streptavidin-XL665 (CIS bio international) dissolved in phosphate buffer (150 mmol/L […]—KH2PO4, pH 7.0, 0.008% Triton X-100, 0.8 mol/L KF) was added to each well and left stand at 30° C. for 45 minutes.

CYP2C9 = biological target: T2, CYP2C9 (Homo sapiens, UniProt P11712); experiment: CYP inhibition test (CYP2C9); assay type: in vitro ADME; conditions: pooled human liver microsomes; tolbutamide methyl-hydroxylation
T2 construct: The commercially available pooled human liver microsomes are used as an enzyme resource; from tissue; host or cells: pooled human liver microsomes
T2 sequence (P11712 whole entry): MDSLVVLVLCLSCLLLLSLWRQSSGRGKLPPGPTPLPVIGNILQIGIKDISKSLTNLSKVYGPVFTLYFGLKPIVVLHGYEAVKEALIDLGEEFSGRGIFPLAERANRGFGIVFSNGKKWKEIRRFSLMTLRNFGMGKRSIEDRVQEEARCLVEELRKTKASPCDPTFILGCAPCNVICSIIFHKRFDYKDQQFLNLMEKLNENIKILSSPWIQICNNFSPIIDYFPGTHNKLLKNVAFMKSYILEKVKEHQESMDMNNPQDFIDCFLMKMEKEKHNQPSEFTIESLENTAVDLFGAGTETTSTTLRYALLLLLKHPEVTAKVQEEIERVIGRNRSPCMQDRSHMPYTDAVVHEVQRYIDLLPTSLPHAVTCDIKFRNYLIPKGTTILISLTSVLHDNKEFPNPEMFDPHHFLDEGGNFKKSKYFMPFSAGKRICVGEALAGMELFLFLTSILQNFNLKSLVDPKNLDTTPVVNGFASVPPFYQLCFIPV
In short: (§1)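 Metabolite formation was quantified by LC/MS/MS: dextrorphan (2D6, 5 μmol/L dextromethorphan), terfenadine alcohol (3A4, 1 μmol/L terfenadine), 4′-hydroxymephenytoin (2C19, 50 μmol/L S-mephenytoin) and hydroxytolbutamide (2C9, 100 μmol/L tolbutamide). Reactions used NADPH-started pooled human liver microsomes (0.2 mg/mL) at 37 °C with compound at 1–20 μmol/L (four points). IC50 was calculated by logistic model relative to the DMSO control.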

CYP2D6 = biological target: T3, CYP2D6 (Homo sapiens, UniProt P10635); experiment: CYP inhibition test (CYP2D6); assay type: in vitro ADME; conditions: pooled human liver microsomes; dextromethorphan O-demethylation
T3 construct: The commercially available pooled human liver microsomes are used as an enzyme resource; from tissue; host or cells: pooled human liver microsomes
T3 sequence (P10635 whole entry): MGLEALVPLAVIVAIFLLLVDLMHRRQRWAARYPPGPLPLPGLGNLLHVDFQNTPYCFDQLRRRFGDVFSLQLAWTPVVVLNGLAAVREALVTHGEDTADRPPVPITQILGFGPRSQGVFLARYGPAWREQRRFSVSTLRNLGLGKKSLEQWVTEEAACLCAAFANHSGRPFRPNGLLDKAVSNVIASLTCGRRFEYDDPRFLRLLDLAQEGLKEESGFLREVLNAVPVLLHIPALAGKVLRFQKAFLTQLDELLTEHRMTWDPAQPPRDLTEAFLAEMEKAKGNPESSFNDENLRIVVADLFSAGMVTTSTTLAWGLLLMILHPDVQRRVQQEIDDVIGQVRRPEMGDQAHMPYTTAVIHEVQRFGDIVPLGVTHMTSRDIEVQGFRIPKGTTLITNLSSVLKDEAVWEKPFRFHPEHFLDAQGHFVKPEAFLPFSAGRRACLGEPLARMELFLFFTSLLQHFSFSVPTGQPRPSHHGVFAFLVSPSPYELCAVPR
In short: as §1

Recombinant human BACE1 [2] = biological target: T1, Recombinant human BACE1; experiment: Assay of BACE1 inhibitory activity: 384-well; assay type: biochemical; conditions: Assay format 384-well
In short: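 Recombinant human BACE1 was incubated 2 h at 25 °C with a biotin/Eu-cryptate-labelled peptide substrate and compound in DMSO. Streptavidin-XL665 in pH 7.0 phosphate buffer containing 0.8 mol/L KF was then added for 30 min at 25 °C for HTRF detection.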

[3] = system: Aβ production in neuroblastoma SH-SY5Y cells (SH/APPwt); experiment: β-amyloid (Aβ) production inhibitory effect in cell: 384-well; assay type: cell-based; conditions: Homo sapiens, Assay format 384-well
In short: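 Aβ1-40 secreted by SH/APPwt neuroblastoma cells was quantified by HTRF (overnight, 4 °C, light-protected; emission 620/665 nm). Cells were exposed to compound from seeding for 21 h at 1% final DMSO.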

T1 sequence (P56817 46-501): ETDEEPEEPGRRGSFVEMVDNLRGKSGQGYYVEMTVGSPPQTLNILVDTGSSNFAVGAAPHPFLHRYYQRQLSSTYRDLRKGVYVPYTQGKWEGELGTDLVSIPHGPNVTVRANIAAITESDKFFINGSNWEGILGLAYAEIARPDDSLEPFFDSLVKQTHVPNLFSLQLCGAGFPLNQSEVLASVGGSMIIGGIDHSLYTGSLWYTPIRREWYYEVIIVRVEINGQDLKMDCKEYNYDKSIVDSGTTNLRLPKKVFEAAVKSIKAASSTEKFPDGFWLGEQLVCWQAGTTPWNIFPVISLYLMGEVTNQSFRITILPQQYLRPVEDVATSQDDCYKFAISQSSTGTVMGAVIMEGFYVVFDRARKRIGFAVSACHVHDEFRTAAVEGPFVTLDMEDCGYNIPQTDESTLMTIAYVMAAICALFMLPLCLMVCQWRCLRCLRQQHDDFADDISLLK

IC50 (Recombinant human BACE1 [1]) [nM] | IC50 (CYP2C9) [nM] | IC50 (CYP2D6) [nM] | IC50 (Recombinant human BACE1 [2]) [nM] | IC50 [3] [nM] | SMILES
69.6 | ≥ 20000 | ≥ 10000 | – | – | C[C@]1(c2cc(NC(=O)c3cnc(OCF)cn3)ccc2F)N=C(N)OCC12CC(F)(F)C2 [Compound I-44]
– | ≥ 10000 | ≥ 20000 | 10.8 | 0.49 | C[C@H]1SC(N)=N[C@](C)(c2cccc(NC(=O)c3cnc(OCF)cn3)c2)[C@H]1F [Compound I-104]
43.6 | ≥ 20000 | ≥ 10000 | – | – | Cc1nc(C(=O)Nc2ccc(F)c([C@@]3(C)N=C(N)O[C@H](C(F)(F)F)[C@@H]3C)c2)co1 [Compound I-32]
40.5 | ≥ 20000 | ≥ 20000 | – | – | C[C@@H]1[C@@H](C(F)(F)F)OC(N)=N[C@]1(C)c1cc(NC(=O)c2ccc(C#N)cn2)ccc1F [Compound I-27]
– | – | – | 25.1 | 17 | C[C@]1(c2cc(NC(=O)c3cnc(OCF)cn3)ccc2F)N=C(N)O[C@H](C(F)(F)C2CC2)[C@@H]1F [Compound I-82]
– | ≥ 20000 | ≥ 20000 | 19.4 | 2.6 | C[C@H]1SC(N)=N[C@](C)(c2cccc(NC(=O)c3cnc(C(F)F)cn3)c2)[C@H]1F [Compound I-106]
– | ≥ 20000 | ≥ 20000 | 21.4 | 0.66 | CO[C@H]1[C@@H](C)SC(N)=N[C@]1(C)c1cc(NC(=O)c2cnc(OCF)cn2)ccc1F [Compound I-87]
134 | ≥ 20000 | ≥ 20000 | – | – | C[C@]1(c2cc(NC(=O)c3ccc(F)cn3)ccc2F)N=C(N)OCC12CC(F)(F)C2 [Compound I-45]
– | ≥ 10000 | ≥ 20000 | 3.13 | 0.025 | C[C@H]1SC(N)=N[C@](C)(c2cc(NC(=O)c3coc(CF)n3)ccc2F)[C@H]1F [Compound I-49]
– | – | ≥ 20000 | 7.06 | 0.22 | C[C@H]1SC(N)=N[C@](C)(c2cc(NC(=O)c3ncc(C#N)cc3Cl)ccc2F)[C@H]1F [Compound I-64]
– | – | – | 10.8 | 0.45 | C[C@]1(c2cc(NC(=O)c3cnc(OCF)cn3)ccc2F)N=C(N)S[C@H](CO)[C@@H]1F [Compound I-109]
– | – | – | 17.5 | 0.41 | C[C@H]1SC(N)=N[C@](C)(c2cc(NC(=O)c3ccc(OCF)cn3)ccc2F)[C@H]1F [Compound I-51]
– | ≥ 20000 | ≥ 20000 | 15.3 | 0.51 | COc1cnc(C(=O)Nc2ccc(F)c([C@@]3(C)N=C(N)S[C@H](C)[C@@H]3OC)c2)cn1 [Compound I-90]
13.1 | ≥ 20000 | ≥ 20000 | – | – | C[C@]1(c2cc(NC(=O)c3ccc(C#N)cn3)ccc2F)N=C(N)O[C@H]2[C@@H]1OCC2(F)F [Compound I-35]
– | – | ≥ 10000 | 10.6 | 2 | CC[C@H]1SC(N)=N[C@](C)(c2cc(NC(=O)c3ccc(F)cn3)ccc2F)[C@H]1F [Compound I-70]
97 | ≥ 20000 | ≥ 10000 | – | – | CO[C@H]1[C@@H](CF)OC(N)=N[C@]1(C)c1cc(NC(=O)c2cnc(OCF)cn2)ccc1F [Compound I-24]
– | ≥ 20000 | – | 19.8 | 0.3 | COc1cnc(C(=O)Nc2ccc(F)c([C@@]3(C)N=C(N)SCC34CC(F)(F)C4)c2)cn1 [Compound I-55]
– | ≥ 10000 | ≥ 20000 | 17.3 | 2.1 | COc1cnc(C(=O)Nc2cccc([C@@]3(C)N=C(N)S[C@H](C)[C@@H]3F)c2)cn1 [Compound I-103]
– | ≥ 20000 | ≥ 20000 | 14.4 | 0.13 | CO[C@H]1[C@@H](C)SC(N)=N[C@]1(C)c1cc(NC(=O)c2ccc(C#N)cn2)ccc1F [Compound I-88]
– | – | – | 30.3 | 14 | COc1cnc(C(=O)Nc2ccc(F)c([C@@]3(C)N=C(N)O[C@H](C(F)(F)C4CC4)[C@@H]3F)c2)cn1 [Compound I-83]
– | – | ≥ 10000 | 136 | 8.8 | COc1ccc(C(=O)Nc2ccc(F)c([C@@]3(C)N=C(N)S[C@H](C)[C@@H]3F)c2)nn1 [Compound I-108]
– | ≥ 20000 | – | 10.9 | 0.058 | C[C@]1(c2cc(NC(=O)c3ccc(C#N)cn3)ccc2F)N=C(N)SCC12CC(F)(F)C2 [Compound I-59]

IC50 (Recombinant human BACE1 [1]) [nM] | IC50 (CYP2C9) [nM] | IC50 (CYP2D6) [nM] | IC50 (Recombinant human BACE1 [2]) [nM] | IC50 [3] [nM] | SMILES
1560 | ≥ 20000 | ≥ 20000 | – | – | C[C@H]1[C@H](C(F)(F)F)OC(N)=N[C@]1(C)c1cc(NC(=O)c2ccc(C#N)cn2)ccc1F [Compound I-29]
49.2 | ≥ 20000 | – | – | – | C[C@H]1[C@@H](C(F)F)OC(N)=N[C@]1(C)c1cc(NC(=O)c2cnc(OCF)cn2)ccc1F [Compound I-33]
– | ≥ 10000 | – | 15.6 | 8.3 | CC(F)(F)[C@H]1OC(N)=N[C@](C)(c2cc(NC(=O)c3cnc(OCC(F)(F)F)cn3)ccc2F)[C@H]1F [Compound I-75]
– | – | ≥ 20000 | 15.4 | 4.8 | C[C@H]1SC(N)=N[C@](C)(c2cc(NC(=O)c3cnc(OCC4CC4)cn3)ccc2F)[C@H]1F [Compound I-85]
– | – | – | 25.3 | 11 | C[C@]1(c2cc(NC(=O)c3ccc(OCF)cn3)ccc2F)N=C(N)O[C@H](C2(F)CC2)[C@@H]1F [Compound I-101]
102 | ≥ 10000 | ≥ 10000 | – | – | C[C@]1(c2cc(NC(=O)c3ccc(F)cn3)ccc2F)N=C(N)O[C@H](CF)[C@@H]1OCC(F)(F)F [Compound I-11]
– | – | – | 7.77 | 0.39 | COc1ccc(C(=O)Nc2ccc(F)c([C@@]3(C)N=C(N)S[C@H](C)[C@@H]3F)c2)nc1 [Compound I-50]
– | – | ≥ 20000 | 14.5 | 0.89 | C[C@H]1SC(N)=N[C@](C)(c2cc(NC(=O)c3ncc(OCC(F)(F)F)cn3)ccc2F)[C@H]1F [Compound I-53]
18 | ≥ 20000 | ≥ 20000 | – | – | CO[C@H]1[C@@H](CF)OC(N)=N[C@]1(C)c1cc(NC(=O)c2ccc(C#N)cn2)ccc1Cl [Compound I-18]
– | ≥ 20000 | ≥ 20000 | 15.1 | 1.5 | CO[C@H]1[C@@H](C)SC(N)=N[C@]1(C)c1cc(NC(=O)c2ccc(F)cn2)ccc1F [Compound I-89]
– | ≥ 10000 | – | 13.2 | 4.5 | COCC(F)(F)[C@H]1OC(N)=N[C@](C)(c2cc(NC(=O)c3cnc(OCF)cn3)ccc2F)[C@H]1F [Compound I-79]
– | ≥ 10000 | ≥ 20000 | 21.2 | 1.8 | C[C@]1(c2cc(NC(=O)c3ccc(C#N)cn3)ccc2F)N=C(N)O[C@H](C2(F)CC2)[C@@H]1F [Compound I-96]
– | ≥ 20000 | – | 101 | 2.21 | COc1cnc(C(=O)Nc2ccc(F)c([C@@]3(C)N=C(N)O[C@H](C(F)F)[C@@H]3C)c2)cn1 [Compound I-86]
– | ≥ 10000 | – | 11.9 | 5.4 | C[C@H]1SC(N)=N[C@](C)(c2cc(NC(=O)c3ccc(F)cn3)ccc2F)C12CC(F)(F)C2 [Compound I-63]
59.7 | ≥ 20000 | – | – | – | COc1cnc(C(=O)Nc2ccc(F)c([C@@]3(C)N=C(N)O[C@H]([C@H](C)F)[C@@H]3F)c2)cn1 [Compound I-17]
– | – | – | 5.47 | 0.56 | CC[C@H]1SC(N)=N[C@](C)(c2cc(NC(=O)c3ccc(OCF)cn3)ccc2F)[C@H]1F [Compound I-67]
– | ≥ 10000 | – | 45.8 | 79 | CC(F)(F)[C@H]1OC(N)=N[C@](C)(c2cc(NC(=O)c3cnc(OCC(F)F)cn3)ccc2F)[C@H]1F [Compound I-77]
– | ≥ 20000 | – | 12 | 0.54 | COc1cnc(C(=O)Nc2ccc(F)c([C@@]3(C)N=C(N)O[C@H]([C@@H](C)F)[C@@H]3F)c2)cn1 [Compound I-71]
– | – | – | 5.62 | 0.13 | CC[C@H]1SC(N)=N[C@](C)(c2cc(NC(=O)c3cnc(OCF)cn3)ccc2F)[C@H]1F [Compound I-66]
– | ≥ 10000 | – | 16.9 | 21 | C[C@]1(c2cc(NC(=O)c3ccc(C#N)cn3)ccc2F)N=C(N)O[C@H](C(F)(F)C2CC2)[C@@H]1F [Compound I-81]
– | – | – | 3.77 | 1.6 | CC#CCOc1cnc(C(=O)Nc2ccc(F)c([C@@]3(C)N=C(N)O[C@H](C(C)(F)F)[C@@H]3F)c2)cn1 [Compound I-76]
